These results are taken from patent publication US8288439B2, “Methods and compositions for the inhibition of HIV-1 replication” (The United States of America, as represented by the …, priority 2003, dated 2012).

Data set [1] deals with p21 (CDKN1A). Briefly: p21 (CDKN1A) gene expression in HIV-1 infected macrophages (ribonuclease protection assay). The format is cell-based, human. The settings on record: for human p21 expression: murine-derived antisense sequences tested in human macrophages. From the text:
Total cellular RNA is extracted from adherent control or infected monocytes with the RNeasy minikit (Qiagen, Valencia, Calif.) and analyzed by northern blot (Wahl, S. M. et al. (1998) “MYCOBACTERIUM AVIUM COMPLEX AUGMENTS MACROPHAGE HIV-1 PRODUCTION AND INCREASES CCR5 EXPRESSION. Proc Natl Acad Sci USA 95:12574-12579) using an HIV-full length probe (NIH AIDS Research and Reference Reagent Program) and GAPDH (glyceraldehyde-3-phosphate dehydrogenase) (Gibco BRL, Gaithersburg, Md.). For the RPA 3 μg of RNA is evaluated using the hStress tRiboquant Multi-Probe RPA system (BD Pharmingen, San Diego, Calif.) and densities are normalized to the GAPDH gene using ImageQuant (Molecular Dynamics, Sunnyvale, Calif.)

In data set [2] the test system is CD4 and CCR5. Briefly: Macrophage CD4 and CCR5 expression. The format is cell-based, human. How it is done: Macrophages were also treated with p21 siRNA duplexes (5 nM) five days prior to HIV infection and the effect on HIV-growth was determined (% of positive HIV control, no siRNA treatment) (representative experiment, n=3) (FIG. 6B). The percent of HIV-1 infection was determined comparing the p24 levels in untreated vs oligo or siRNA treated macrophages. Cells treated with p21 and negative control siRNA (5 days) were also analyzed by flow cytometry for CD4 and CCR5 cell surface expression (FIG. 6C). Nested PCR was employed in order to detect pro-viral DNA on days 1 and 3 after HIV-1BaL infection in macrophages treated with p21 or control siRNA or negative control si RNA. Control represents uninfected cells (FIG. 6D).

Data set [3] has as its system HIV-1. The note with it: for viral replication / HIV-1 growth as determined by p24 levels: oligonucleotide 50 nM, after HIV-1 infection and at refeeding, day 12, vs HIV control without oligo.
Protocol: Monocytes are plated in 6 well plates (Corning Costar Corporation, Cambridge, Mass.), at 6×10^6 cells/well or in Lab-Tek chamber slides (Naperville, Ill.) at 1.5×10^6/chamber in Dulbecco's modified Eagle's medium (DMEM) with 2 mM L-glutamine and 10 μg/ml gentamicin (BioWhittaker) or in other suitable vessels. After adherence (4-6 hr at 37° C. and 5% CO2), 10% human AB-serum (Sigma, St. Louis, Mo.) is added to the culture medium. Cells are cultured 5-10 days to allow differentiation into macrophages before being infected with HIV-1BaL TCID50=1000-5000 (Advanced Biotechnologies Inc., Columbia, Md.) or other M tropic (R5) virus for 90 minutes at 37° C. The levels of endotoxin are below the limit of detection in virus preparations. Unbound virus is removed by washing the cells with media and refeeding with complete DMEM containing 10% human serum. Control populations of adherent macrophages are mock-infected and cultured in parallel. Every 3 to 4 days, half the medium is removed for virus assay and replaced with fresh complete medium for two weeks. Supernatant p24 antigen is assayed using the p24 core profile enzyme-linked immunosorbent assay (ELISA) kit (Perkin-Elmer Life Sciences, Wilmington, Del.). […] Additionally, macrophages are treated with p21 anti-sense phosphorothioate oligonucleotides:
In data set [4] the test system is macrophages. Briefly: Macrophage cell viability / cell number, morphology and ultrastructural analysis. The note with it: for cell viability (cell number, morphology, ultrastructural analysis): infected or uninfected macrophage cultures treated with oligonucleotides.
Protocol: To determine whether the increased p21 influenced viral life cycle, the cells are treated with two distinct p21 anti-sense oligonucleotides (SEQ ID NO. 7 and SEQ ID NO. 9).
Data set [5] deals with HIV-1. Briefly: Transmission electron microscopy (ultrastructural analysis) of HIV-1 infected macrophages. The format is cell-based. The note with it: day 12; ≧200 cells/treatment condition. From the text: Gluteraldehyde-fixed uninfected and infected cells are postfixed in OsO4, dehydrated through graded ethanol and propylene oxide, embedded in Spurr's epoxy, and thick- and thin-sectioned. Thin sections are placed on copper grids, stained with uranyl acetate and lead citrate, and viewed in a Zeiss EM10 microscope (LEO Electron Microscope; Oberkochen, Germany).

The subject of data set [6] is p21 (CDKN1A). Briefly: p21 protein levels in macrophages. In kind it is cell-based, human. The settings on record: concomitant with reducing HIV infection. Here is the method:
Uninfected and HIV-1 infected macrophages that have been cultured for twelve days are washed twice with PBS, fixed with 2% paraformaldehyde in PBS, washed and incubated in 100 mM glycine in PBS for 20 min, followed by 0.5% Triton-X-100 for 10 min and rinsed with PBS. Cells are then labeled with rabbit anti-p21 antibody at 5 μg/ml (Santa Cruz Biotechnology, Santa Cruz, Calif.) in PBS containing 5% donkey serum (Jackson ImmunoResearch Laboratories, Inc., West Grove, Pa.) for 1 hr, washed extensively, then incubated with Texas-Red conjugated secondary antibody at 3 μg/ml at room temperature (Molecular Probes, Eugene, Oreg.). Non-specific background is determined using an irrelevant rabbit isotype control antibody and secondary antibody alone at the same concentrations above. Images are captured using a Leica TCS-4D confocal microscope system with a Kr—Ar laser on a DMR upright microscope using a 40×, 1.0 numerical aperture objective. Fluorescence intensity analysis is performed using confocal microscopy and Metamorph analysis (Universal Imaging, Downington, Pa.). […]

Data set [7] relates to p21. Briefly: Induction of p21 gene and protein expression in macrophages treated with Vpr. The format is cell-based, human. The settings on record: Vpr 6 μg/ml for 3 hr. How it is done:
Macrophages were treated with Vpr (6 μg/ml) for 3 hr and found to show increased gene transcription and protein expression for p21 when treated with Vpr (FIG. 7A and FIG. 7B).

Entries after “also recorded” stand apart in the source; their conditions may differ. Where two headings read alike, the source gives them in different places.

Take “5′-ACATCACCAGGATTGGACAT-3′ (all phosphorothioate, sugars by position and methylation of C not given here; listed as Mus musculus) [SEQ ID NO. 9]”: in data set [1], the “human p21 expression” value is “effective in inhibiting”. For the same molecule, the “effect on macrophage CD4 and CCR5” value in data set [2] is reported as “no direct effect”. Besides, in data set [3], the “viral replication / HIV-1 growth as determined by p24 levels” value (“viral replication / HIV-1 growth” for short) is on record as “reduce viral replication; also recorded: inhibit HIV-1 growth”. Also, the “cell viability (cell number, morphology, ultrastructural analysis)” value in data set [4] is recorded as “no negative effect”.
On to `CC1(C)CC[C@]2(C(=O)O)CC[C@]3(C)[C@H](C(=O)C=C4[C@@]5(C)C=C(C#N)C(=O)C(C)(C)[C@@H]5CC[C@]43C)[C@@H]2C1` [CDDO], for which, in data set [5], the “detectable virions (TEM)” value was “absence or near absence of detectable virions” and the “numbers of infected cells (ultrastructural analysis, TEM)” value is given as “dramatically reduced numbers of infected cells”. The “p21 transcription by ribonuclease protection assay” value in data set [1] (HIV-1 infected macrophages, day 12 post-infection, mean, n=2) is recorded as “reduced p21 transcription”. For the same molecule, in data set [6], the p21 protein levels entry is given as “variably decrease”. The “release of the viral protein p24 Ag” value in data set [3] (added prior to, or at the time of, infection of macrophages with HIV-1, CDDO 0.1 μM) is “dose dependent suppression”. For the same molecule, the “levels of detectable virus” value in data set [3] (macrophages infected with HIV-1) was “dramatically reduced”. Further, the “viral replication as quantitated by p24 levels” value in data set [3] (macrophages pre-treated 45 min, then infected with HIV-1BaL, compared with DMSO control and untreated cells, day 10, n=3, P=0.01) was “reduced viral replication”. Further, the “cell viability or cell number” value in data set [4] (HIV-1 infected macrophages treated with CDDO or di-CDDO) was “Without reducing cell viability or cell number”.
As for “5′-TGGATCCGACATGTCAGA-3′ [SEQ ID NO. 14]”, the figures for the “viral replication / HIV-1 growth” value in data set [3] and in data set [3] (listed as SEQ ID NO. 13) were “not” and “did not suppress”, respectively.
“5′-TGTCAGGCTGGTCTGCCTCC-3′ (all phosphorothioate, sugars by position and methylation of C not given here; listed as Mus musculus) [SEQ ID NO. 7]”: the “human p21 expression” value in data set [1] is “effective in inhibiting”. In addition, the “effect on macrophage CD4 and CCR5” value in data set [2] is on record as “no direct effect”. Also, the “viral replication / HIV-1 growth” value in data set [3] is given as “reduce viral replication; also recorded: inhibit HIV-1 growth”. Besides, the “cell viability (cell number, morphology, ultrastructural analysis)” value in data set [4] is given as “no negative effect”.
Consider “Vpr: HIV-1 Vpr gene product, added to macrophages at 6 μg/ml”, for which, in data set [7], the p21 gene transcription result is “increased” and the p21 protein expression result is on record as “increased”.
